{
  "source": "paper PMC9814340",
  "about": "“CDK8/19 inhibition plays an important role in pancreatic β-cell induction from human iPSCs” (Stem Cell Research & Therapy, 2023)",
  "key": {"[1]": {"tested_on": "β-cells (INS+NKX6.1+) differentiated from human iPSC line Ff-I14-s04", "assay": "β-cell induction in iPIC differentiation from hiPSCs (compound at stages 5-7), flow cytometry", "format": "cell-based", "settings": "for proportion of β-cells (INS+NKX6.1+), representative dot plot: Fig. 3a", "method": "For differentiation culture to generate iPICs, we used 2D monolayer to static aggregate culture based on our previous report and 3D stirred-floating aggregate culture. The details of the typical 3D floating culture were as follows.\nPD-166866 (1 μM, Merck Millipore) was added from day 4 of stage 6.\nStage 7 medium was based on a previous report with our original modifications. […] To generate iPICs for implantation, cells were dissociated and re-sized in an Elplasia 6-well microwell plate (Corning Incorporated, Corning, NY, USA) or a gas-permeable microwell culture bag (Toyo Seikan Group Holdings, Ltd., Yokohama, Japan) and cultured in the stage 7 medium.\nThe differentiation efficiency of β-cells (INS^+NKX6.1^+) and endocrine cells (CHGA^+) was analyzed using immunostaining methods and flow cytometry on an LSRFortessa X20 instrument (BD Corporation, Franklin Lakes, NJ, USA), as described previously. The primary antibodies used are detailed in Additional file 1: Table S1. Secondary antibodies were conjugated to Alexa Fluor 488, 546, 568, and 647 of the appropriate species (Thermo Fisher Scientific or Jackson ImmunoResearch, West Grove, PA, USA)."}, "CDK8 [2]": {"biological_target": "T1, CDK8 (Homo sapiens, UniProt P49336)", "T1 sequence (P49336 whole entry, species assumed)": "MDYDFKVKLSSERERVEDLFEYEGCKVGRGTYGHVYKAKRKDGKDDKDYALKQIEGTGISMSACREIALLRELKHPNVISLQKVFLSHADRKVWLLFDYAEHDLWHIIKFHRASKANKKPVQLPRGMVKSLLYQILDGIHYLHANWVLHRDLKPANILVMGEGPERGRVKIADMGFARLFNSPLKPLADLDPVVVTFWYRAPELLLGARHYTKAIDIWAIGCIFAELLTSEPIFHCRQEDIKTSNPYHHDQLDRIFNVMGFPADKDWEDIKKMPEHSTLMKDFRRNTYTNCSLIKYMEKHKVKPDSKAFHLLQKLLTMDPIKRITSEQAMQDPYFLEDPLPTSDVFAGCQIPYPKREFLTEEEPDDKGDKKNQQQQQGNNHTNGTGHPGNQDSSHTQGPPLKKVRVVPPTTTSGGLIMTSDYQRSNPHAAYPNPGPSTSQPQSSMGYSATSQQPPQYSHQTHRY", "T1 sequence (P24863 whole entry partner, species assumed)": "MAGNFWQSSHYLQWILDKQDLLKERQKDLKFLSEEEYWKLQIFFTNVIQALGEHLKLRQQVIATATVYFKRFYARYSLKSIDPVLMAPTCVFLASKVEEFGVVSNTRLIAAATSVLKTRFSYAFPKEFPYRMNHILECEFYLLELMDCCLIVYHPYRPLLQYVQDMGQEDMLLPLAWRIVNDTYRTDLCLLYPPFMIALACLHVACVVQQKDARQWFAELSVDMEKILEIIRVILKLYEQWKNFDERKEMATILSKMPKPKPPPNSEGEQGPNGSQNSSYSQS", "design": "Axcelead Drug Discovery Partners (ran the assay); method as in PMID 28392276", "settings": "cited from earlier work"}, "[3]": {"tested_on": "Salmonella typhimurium TA100, TA1535, TA98, and TA1537, and Escherichia coli WP2uvrA", "assay": "Ames mutagenicity assay (bacterial reverse mutation test), five strains, absence of rat liver S9", "settings": "for Ames Mutagenicity: result in words, absence of rat liver S9, 78.1-5000 μg/plate", "from_the_text": "(§1) Salmonella typhimurium TA100, TA1535, TA98, and TA1537, and Escherichia coli WP2uvrA were used to detect either frameshift mutations (TA98 and TA1537) or base pair substitutions (TA100, TA1535, and WP2uvrA). These strains are widely used and recommended for use in ICH S2(R1) for the bacterial reversion assay.\n(§2) In the current study, rat liver S9 fraction, […], was not included because the mutagenicity of compounds should be assessed when simulating cell cultures but not in vivo after metabolism by liver enzymes. Briefly, each tester strain was mixed with seven concentrations (78.1–5000 μg/plate) of each compound and preincubated for 20 min in test tubes. Two plates per dose for the tested compounds and positive control group, and four plates per dose for the negative control group were used. Dimethyl sulfoxide (FUJIFILM Wako) was selected as solvent for the tested compounds and used as negative control. […] Following preincubation, semisolid top agar was added to the tubes, and then, the mixtures were overlaid on minimal glucose agar plates. After the overlaid agar solidified, the plates were stored at 37 °C in an incubator for 48 h.\n(§3) Cultures were examined for signs of compound precipitation and other abnormal conditions by eye. Subsequently, cytotoxicity (decreased background lawn) was assessed using a stereomicroscope. The number of revertant colonies on the plates was counted using an automatic colony analyzer (CA-11, System Science Co., Ltd., Tokyo, Japan) or manually when counting by the automatic colony analyzer was inappropriate, e.g., when precipitation was observed."}, "[4]": {"tested_on": "Salmonella typhimurium TA1537", "from_the_text": "as §1, §2, §3"}, "ALK5": {"biological_target": "T2, ALK5 (Homo sapiens, UniProt P36897)", "T2 construct": "Axcelead Drug Discovery Partners (ran the assay)", "T2 sequence (P36897 34-503)": "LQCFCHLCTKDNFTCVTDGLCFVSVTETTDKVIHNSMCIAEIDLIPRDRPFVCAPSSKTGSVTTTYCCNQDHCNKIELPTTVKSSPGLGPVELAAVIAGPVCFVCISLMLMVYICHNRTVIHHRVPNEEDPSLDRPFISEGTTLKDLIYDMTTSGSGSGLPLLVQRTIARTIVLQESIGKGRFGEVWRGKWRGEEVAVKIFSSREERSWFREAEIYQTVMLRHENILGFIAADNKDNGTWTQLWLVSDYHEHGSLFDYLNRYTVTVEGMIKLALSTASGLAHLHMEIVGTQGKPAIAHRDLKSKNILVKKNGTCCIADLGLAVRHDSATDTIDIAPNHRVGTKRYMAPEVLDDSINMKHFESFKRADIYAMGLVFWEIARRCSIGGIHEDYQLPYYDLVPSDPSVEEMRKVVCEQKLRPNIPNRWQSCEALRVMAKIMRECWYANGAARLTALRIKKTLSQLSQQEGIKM", "assay": "TR-FRET-based competitive binding kinase profiling assay", "settings": "Yes/No summary of Fig. 1d; method not given"}, "TNIK": {"biological_target": "TNIK (Homo sapiens, UniProt Q9UKE5)", "sequence (Q9UKE5 whole entry, species assumed)": "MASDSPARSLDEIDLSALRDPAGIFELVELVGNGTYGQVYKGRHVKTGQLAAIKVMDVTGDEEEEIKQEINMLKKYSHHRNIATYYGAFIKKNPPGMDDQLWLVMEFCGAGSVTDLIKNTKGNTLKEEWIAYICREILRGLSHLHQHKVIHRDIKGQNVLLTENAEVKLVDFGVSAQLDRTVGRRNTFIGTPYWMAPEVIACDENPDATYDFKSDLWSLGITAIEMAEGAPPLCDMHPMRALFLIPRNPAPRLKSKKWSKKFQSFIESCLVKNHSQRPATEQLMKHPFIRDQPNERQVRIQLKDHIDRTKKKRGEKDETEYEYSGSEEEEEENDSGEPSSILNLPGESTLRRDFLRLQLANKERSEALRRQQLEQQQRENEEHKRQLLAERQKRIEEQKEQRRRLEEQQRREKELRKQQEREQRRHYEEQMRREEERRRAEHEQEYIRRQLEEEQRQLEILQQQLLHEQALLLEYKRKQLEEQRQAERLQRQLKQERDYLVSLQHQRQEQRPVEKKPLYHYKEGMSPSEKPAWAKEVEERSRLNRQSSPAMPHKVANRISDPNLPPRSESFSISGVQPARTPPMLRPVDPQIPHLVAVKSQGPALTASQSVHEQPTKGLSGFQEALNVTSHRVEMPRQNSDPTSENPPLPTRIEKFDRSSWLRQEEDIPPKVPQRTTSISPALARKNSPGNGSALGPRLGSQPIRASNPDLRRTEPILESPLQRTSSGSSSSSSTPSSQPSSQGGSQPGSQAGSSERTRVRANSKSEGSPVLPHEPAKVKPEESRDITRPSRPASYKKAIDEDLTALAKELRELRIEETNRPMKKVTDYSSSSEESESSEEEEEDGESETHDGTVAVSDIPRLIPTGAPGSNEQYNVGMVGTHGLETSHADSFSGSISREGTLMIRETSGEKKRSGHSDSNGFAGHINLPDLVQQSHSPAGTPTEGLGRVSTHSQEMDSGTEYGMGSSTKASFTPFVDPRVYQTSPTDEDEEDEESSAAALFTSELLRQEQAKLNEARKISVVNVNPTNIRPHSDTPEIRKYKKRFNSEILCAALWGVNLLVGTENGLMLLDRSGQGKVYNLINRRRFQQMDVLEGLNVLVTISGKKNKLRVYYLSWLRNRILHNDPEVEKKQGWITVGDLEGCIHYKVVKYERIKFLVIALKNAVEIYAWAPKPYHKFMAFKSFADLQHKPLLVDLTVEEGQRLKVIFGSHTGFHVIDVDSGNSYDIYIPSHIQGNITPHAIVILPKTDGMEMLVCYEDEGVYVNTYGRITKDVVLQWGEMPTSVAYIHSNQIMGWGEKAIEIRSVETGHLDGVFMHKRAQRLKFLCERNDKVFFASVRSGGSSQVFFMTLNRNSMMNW", "assay": "biochemical", "method": "(§4) Briefly, BODIPY-FL- or Cy5-FL-conjugated staurosporine derivative that binds to a highly conserved ATP-binding pocket in kinases was used as a fluorescent probe and tested compounds were applied at 0.1 and 1 μM in competitive binding assays for ~ 350 recombinant protein kinases. TR-FRET fluorescent signals from terbium and BODIPY/Cy5-FL were measured using an EnVision plate reader (PerkinElmer, Waltham, MA, USA), and pIC50 values were extrapolated from the inhibition rate."}, "CDK8 [5]": {"biological_target": "T1, CDK8", "assay": "biochemical", "method": "as §4"}, "CDK19": {"biological_target": "CDK19 (Homo sapiens, UniProt Q9BWU1)", "sequence (Q9BWU1 whole entry, species assumed)": "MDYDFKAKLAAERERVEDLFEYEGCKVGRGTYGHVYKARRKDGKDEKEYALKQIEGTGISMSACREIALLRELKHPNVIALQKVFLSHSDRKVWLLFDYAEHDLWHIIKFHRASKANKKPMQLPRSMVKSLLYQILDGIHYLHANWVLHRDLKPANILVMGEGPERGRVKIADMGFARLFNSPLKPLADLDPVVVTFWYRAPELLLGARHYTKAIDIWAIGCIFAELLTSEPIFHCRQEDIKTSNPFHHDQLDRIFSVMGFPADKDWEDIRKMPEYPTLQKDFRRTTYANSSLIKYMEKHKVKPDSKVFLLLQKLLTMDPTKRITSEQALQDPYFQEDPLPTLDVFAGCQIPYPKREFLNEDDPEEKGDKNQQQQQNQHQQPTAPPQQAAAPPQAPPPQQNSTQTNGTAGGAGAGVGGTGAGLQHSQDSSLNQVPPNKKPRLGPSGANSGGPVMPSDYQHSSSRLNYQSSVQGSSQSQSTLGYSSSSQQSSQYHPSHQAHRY", "sequence (P24863 whole entry partner, species assumed)": "as the sequence (P24863 whole entry partner, species assumed) above", "assay": "biochemical", "method": "as §4"}, "RIPK2": {"biological_target": "RIPK2 (Homo sapiens, UniProt O43353)", "sequence (O43353 whole entry, species assumed)": "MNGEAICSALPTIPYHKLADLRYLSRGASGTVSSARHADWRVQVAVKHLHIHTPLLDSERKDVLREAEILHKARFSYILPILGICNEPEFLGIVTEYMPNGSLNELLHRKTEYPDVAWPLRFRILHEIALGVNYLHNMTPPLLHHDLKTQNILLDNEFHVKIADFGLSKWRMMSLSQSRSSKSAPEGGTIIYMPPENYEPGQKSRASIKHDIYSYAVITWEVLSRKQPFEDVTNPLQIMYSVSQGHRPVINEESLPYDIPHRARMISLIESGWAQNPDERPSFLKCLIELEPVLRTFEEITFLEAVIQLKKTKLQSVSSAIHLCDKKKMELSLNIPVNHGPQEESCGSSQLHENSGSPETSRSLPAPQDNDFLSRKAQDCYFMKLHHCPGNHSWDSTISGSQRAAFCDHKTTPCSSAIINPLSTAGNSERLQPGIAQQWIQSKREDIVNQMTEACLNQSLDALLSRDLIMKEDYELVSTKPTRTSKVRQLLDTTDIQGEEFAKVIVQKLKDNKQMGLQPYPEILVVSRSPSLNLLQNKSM", "assay": "biochemical", "method": "as §4"}, "TGFBR2": {"biological_target": "TGFBR2 (Homo sapiens, UniProt P37173)", "sequence (P37173 23-567, species assumed)": "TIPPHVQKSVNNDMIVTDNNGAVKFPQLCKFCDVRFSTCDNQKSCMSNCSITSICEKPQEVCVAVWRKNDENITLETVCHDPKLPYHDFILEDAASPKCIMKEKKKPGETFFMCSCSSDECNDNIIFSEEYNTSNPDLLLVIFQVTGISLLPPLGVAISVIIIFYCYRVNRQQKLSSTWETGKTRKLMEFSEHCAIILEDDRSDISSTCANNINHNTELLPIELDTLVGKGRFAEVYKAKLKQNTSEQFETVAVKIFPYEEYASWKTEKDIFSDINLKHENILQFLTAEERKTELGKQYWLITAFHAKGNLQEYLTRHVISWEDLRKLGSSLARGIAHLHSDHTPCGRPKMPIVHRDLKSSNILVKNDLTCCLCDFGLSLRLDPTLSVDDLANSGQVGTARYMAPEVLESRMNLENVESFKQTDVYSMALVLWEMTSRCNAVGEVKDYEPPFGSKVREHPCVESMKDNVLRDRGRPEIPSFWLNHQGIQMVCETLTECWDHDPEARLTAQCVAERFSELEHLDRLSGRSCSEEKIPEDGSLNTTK", "assay": "biochemical", "method": "as §4"}},
  "note": "Entries after “also recorded” stand apart in the source; their conditions may differ. Like-named read-outs stand apart in the source and are kept apart here.",
  "data": [
    {"smiles": "Cn1cc(-c2ccnc(O)c2/C=C/C(=O)Nc2ccc(CN3CCOCC3)cc2)cn1", "note": "[TR05978156]", "values": [
      {"measurement": "β-cell induction / differentiation efficiency", "setting": "[1]; result in words, compound replaces ALK5iII at stages 5-7", "result": "did not induce β-cells efficiently"},
      {"measurement": "IC50", "setting": "CDK8 [2]", "result": "> 10000", "unit": "nM"}
    ]},
    {"smiles": "O=C(/C=C/c1cnccc1-c1cnn(C2CC2)c1)Nc1ccc(CN2CCOCC2)cc1", "note": "[TR06096159]", "values": [
      {"measurement": "IC50", "setting": "CDK8 [2]", "result": 6.4, "unit": "nM"}
    ]},
    {"smiles": "Cc1cccc(-c2[nH]c(C(C)(C)C)nc2-c2ccc3nccnc3c2)n1", "note": "[SB525334]", "values": [
      {"measurement": "Ames Mutagenicity", "setting": "[3]", "result": "Negative; also recorded: did not have mutagenic potential"}
    ]},
    {"smiles": "CN(C)C(=O)Cn1cc(-c2ccc(-c3cncc4ccccc34)cc2)cn1", "note": "[BI-1347]", "values": [
      {"measurement": "proportion of β-cells (INS+NKX6.1+), representative dot plot", "setting": "[1]; 3 nM, instead of ALK5iII, stages 5-7", "result": 39.8, "unit": "%"}
    ]},
    {"smiles": "c1cncc(-c2n[nH]cc2-c2cnc3ccccc3n2)c1", "note": "[TR04411299]", "values": [
      {"measurement": "TA1537, -S9 # colony", "setting": "[4]; 78.1 μg/plate, DMSO control 8 (ALK5 inhibitor II) / 9 (TR04411299)", "result": 5},
      {"measurement": "TA1537, -S9 # colony", "setting": "[4]; 156 μg/plate, DMSO control 8 / 9", "result": 9},
      {"measurement": "TA1537, -S9 # colony", "setting": "[4]; 313 μg/plate, DMSO control 8 / 9", "result": 21},
      {"measurement": "TA1537, -S9 # colony", "setting": "[4]; 625 μg/plate, DMSO control 8 / 9", "result": 45},
      {"measurement": "TA1537, -S9 # colony", "setting": "[4]; 1250 μg/plate, DMSO control 8 / 9", "result": 82},
      {"measurement": "TA1537, -S9 # colony", "setting": "[4]; 2500 μg/plate, DMSO control 8 / 9", "result": 128},
      {"measurement": "TA1537, -S9 # colony", "setting": "[4]; 5000 μg/plate, DMSO control 8 / 9", "result": 194},
      {"measurement": "Ames Mutagenicity", "setting": "[3]", "result": "positive result"},
      {"measurement": "ALK5 inhibition", "setting": "ALK5", "result": "No and did not inhibit ALK5"}
    ]},
    {"smiles": "Cl.Nc1c2ccccc2nc2ccccc12.O", "note": "[9-AA, 9-aminoacridine hydrochloride monohydrate]", "values": [
      {"measurement": "TA1537, -S9 # colony", "setting": "[4]; positive control, 80 μg", "result": 169}
    ]},
    {"smiles": "CN1CCN(C(=O)c2ccc3cc(CCNc4ncnc5ccc(C#N)cc45)ccc3c2)CC1", "note": "[Senexin B]", "values": [
      {"measurement": "proportion of β-cells (INS+NKX6.1+), representative dot plot", "setting": "[1]; 0.1 μM, instead of ALK5iII, stages 5-7", "result": 39.7, "unit": "%"}
    ]},
    {"smiles": "Cc1cccc(-c2n[nH]cc2-c2ccc3ncccc3n2)n1", "note": "[ALK5iII]", "values": [
      {"measurement": "IC50", "setting": "TNIK", "result": 661, "unit": "nM"},
      {"measurement": "IC50", "setting": "CDK8 [5]", "result": 158, "unit": "nM"},
      {"measurement": "IC50", "setting": "CDK19", "result": 66.1, "unit": "nM"},
      {"measurement": "IC50", "setting": "RIPK2", "result": 151, "unit": "nM"},
      {"measurement": "IC50", "setting": "TGFBR2", "result": 107, "unit": "nM"},
      {"measurement": "Ames response in the TA1537 strain", "setting": "[4]", "result": "positive response"},
      {"measurement": "TA1537, -S9 # colony", "setting": "[4]; Salmonella typhimurium", "result": 8},
      {"measurement": "proportion of β-cells (INS+NKX6.1+), representative dot plot", "setting": "[1]; 10 μM ALK5iII at stages 5-7", "result": 35.0, "unit": "%"},
      {"measurement": "Ames mutagenicity test", "setting": "[3]; Fig. 1b flowchart, absence of S9, positive = mean revertant colonies at least twofold the negative control in any strain", "result": "(+)"},
      {"measurement": "Ames Mutagenicity", "setting": "[3]", "result": "Positive"},
      {"measurement": "ALK5 inhibition", "setting": "ALK5", "result": "Yes"}
    ]},
    {"smiles": "COc1ccc2nc3cc(Cl)ccc3c(NCCCNCCCl)c2c1.Cl.Cl", "note": "[ICR, [6-Chloro-9-(3-[2-chloroethylamino]propylamino)-2-methoxyacridine] dihydrochloride]", "values": [
      {"measurement": "TA1537, -S9 # colony", "setting": "[4]; positive control, 1.0 μg", "result": 1804}
    ]},
    {"smiles": "NC(=O)c1ccc(-c2nc(-c3ccc4c(c3)OCO4)c(-c3ccccn3)[nH]2)cc1", "note": "[SB431542]", "values": [
      {"measurement": "Ames Mutagenicity", "setting": "[3]", "result": "did not have mutagenic potential; also recorded: negative"}
    ]}
  ]
}
